For 20 compounds, IC50 results are on record in patent publication US9040528B2, “Chemical compounds 542” (AstraZeneca AB, priority 2008, dated 2015).

This experiment has as its target Escherichia coli DNA gyrase A/B tetramer (Escherichia coli (strain K12), UniProt P0AES4+P0AES6). Kind of experiment: DNA gyrase supercoiling activity fluorescence polarisation assay. The experiment is classed as biochemical. Conditions: 5 nM enzyme, relaxed plasmid, 0.3 mM ATP, ambient temperature; read-out: E. coli DNA gyrase supercoiling IC50. In outline:
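Supercoiling reactions quenched with 40 nM 5′-BODIPY-FL triplex-forming oligonucleotide probe in pH 3.5 NaCl/sodium acetate buffer; after 60 min, fluorescence anisotropy read (ex 485/em 535 nm). IC50 by nonlinear regression, normalised to 0.8% DMSO (100% activity) and 5 μM ciprofloxacin (0% activity).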
With `C[C@@H]1CN2c3c(cc4c(-n5cc(-c6cnccn6)cn5)noc4c3F)CC3(C(=O)NC(=O)NC3=O)[C@H]2[C@H](C)O1` (relative stereo) [Example 35, (2R,4S,4aS)-rel-11-fluoro-2,4-dimethyl-8-[4-(pyrazin-2-yl)-1H-pyrazol-1-yl]-1,2,4,4a-tetrahydro-2′H,6H-spiro[1,4-oxazino[4,3-a][1,2]oxazolo[4,5-g]quinoline-5,5′-pyrimidine]-2′,4′,6′(1′H,3′H)-trione], the IC50 was 30000 nM.
The result for `CCOC(=O)c1cnn(-c2noc3c(F)c4c(cc23)CC2(C(=O)NC(=O)NC2=O)[C@H]2[C@H](C)O[C@H](C)CN42)c1` (relative stereo) [Example 37, ethyl 1-[(2R,4S,4aS)-rel-11-fluoro-2,4-dimethyl-2′,4′,6′-trioxo-1,1′,2,3′,4,4′,4a,6′-octahydro-2′H,6H-spiro[1,4-oxazino[4,3-a][1,2]oxazolo[4,5-g]quinoline-5,5′-pyrimidin]-8-yl]-1H-pyrazole-4-carboxylate] reads 8500 nM.
In the case of `C[C@@H]1CN2c3c(cc4c(-c5ccccn5)noc4c3Cl)CC3(C(=O)NC(=O)NC3=O)[C@H]2[C@H](C)O1` (relative stereo) [Example 38, (2R,4S,4aS)-rel-11-chloro-2,4-dimethyl-8-(pyridin-2-yl)-1,2,4,4a-tetrahydro-2′H,6H-spiro[1,4-oxazino[4,3-a][1,2]oxazolo[4,5-g]quinoline-5,5′-pyrimidine]-2′,4′,6′(1′H,3′H)-trione], the IC50 was 800 nM.
In the case of `Cc1ccc(-c2noc3c(Cl)c4c(cc23)CC2(C(=O)NC(=O)NC2=O)[C@H]2[C@H](C)O[C@H](C)CN42)cn1` (relative stereo) [Example 40, (2R,4S,4 aS)-rel-11-chloro-2,4-dimethyl-8-(6-methylpyridin-3-yl)-1,2,4,4a-tetrahydro-2′H,6H-spiro[1,4-oxazino[4,3-a][1,2]oxazolo[4,5-g]quinoline-5,5′-pyrimidine]-2′,4′,6′(1′H,3′H)-trione], the IC50 stood at 1600 nM.
Then `C[C@@H]1CN2c3c(cc4c(-c5cncs5)noc4c3Cl)CC3(C(=O)NC(=O)NC3=O)[C@H]2[C@H](C)O1` (relative stereo) [Example 41, (2R,4S,4aS)-rel-11-chloro-2,4-dimethyl-8-(1,3-thiazol-5-yl)-1,2,4,4a-tetrahydro-2′H,6H-spiro[1,4-oxazino[4,3-a][1,2]oxazolo[4,5-g]quinoline-5,5′-pyrimidine]-2′,4′,6′(1′H,3′H)-trione], with 800 nM; and `C[C@@H]1CN2c3c(cc4c(-c5ccncn5)noc4c3Cl)CC3(C(=O)NC(=O)NC3=O)[C@H]2[C@H](C)O1` (relative stereo) [Example 43, (2R,4S,4aS)-rel-11-chloro-2,4-dimethyl-8-(pyrimidin-4-yl)-1,2,4,4a-tetrahydro-2′H,6H-spiro[1,4-oxazino[4,3-a][1,2]oxazolo[4,5-g]quinoline-5,5′-pyrimidine]-2′,4′,6′(1′H,3′H)-trione], with 500 nM.
Then `C[C@@H]1CN2c3c(cc4c(-c5ccnnc5)noc4c3Cl)CC3(C(=O)NC(=O)NC3=O)[C@H]2[C@H](C)O1` (relative stereo) [Example 45, (2R,4S,4aS)-rel-11-chloro-2,4-dimethyl-8-(pyridazin-4-yl)-1,2,4,4a-tetrahydro-2′H,6H-spiro[1,4-oxazino[4,3-a][1,2]oxazolo[4,5-g]quinoline-5,5′-pyrimidine]-2′,4′,6′(1′H,3′H)-trione], with 1600 nM.
The result for `C[C@@H]1CN2c3c(cc4c(-c5ccncc5)noc4c3Cl)CC3(C(=O)NC(=O)NC3=O)[C@H]2[C@H](C)O1` (relative stereo) [Example 46, (2R,4S,4aS)-rel-11-chloro-2,4-dimethyl-8-(pyridin-4-yl)-1,2,4,4a-tetrahydro-2′H,6H-spiro[1,4-oxazino[4,3-a][1,2]oxazolo[4,5-g]quinoline-5,5′-pyrimidine]-2′,4′,6′(1′H,3′H)-trione] reads 1000 nM.
For the compound `C[C@@H]1CN2c3c(cc4c(-c5cccnc5)noc4c3Cl)CC3(C(=O)NC(=O)NC3=O)[C@H]2[C@H](C)O1` (relative stereo) [Example 47, (2R,4S,4aS)-rel-11-chloro-2,4-dimethyl-8-(pyridin-3-yl)-1,2,4,4a-tetrahydro-2′H,6H-spiro[1,4-oxazino[4,3-a][1,2]oxazolo[4,5-g]quinoline-5,5′-pyrimidine]-2′,4′,6′(1′H,3′H)-trione], the IC50 turned out to be 300 nM.
As to `C[C@@H]1CN2c3c(cc4c(-c5nccs5)noc4c3Cl)CC3(C(=O)NC(=O)NC3=O)[C@H]2[C@H](C)O1` (relative stereo) [Example 48, (2R,4S,4aS)-rel-11-chloro-2,4-dimethyl-8-(1,3-thiazol-2-yl)-1,2,4,4a-tetrahydro-2′H,6H-spiro[1,4-oxazino[4,3-a][1,2]oxazolo[4,5-g]quinoline-5,5′-pyrimidine]-2′,4′,6′(1′H,3′H)-trione], the IC50 turned out to be 1000 nM.
The result for `COCc1noc2c(Cl)c3c(cc12)CC1(C(=O)NC(=O)NC1=O)[C@H]1[C@H](C)O[C@H](C)CN31` (relative stereo) [Example 49, (2R,4S,4aS)-rel-11-chloro-8-(methoxymethyl)-2,4-dimethyl-1,2,4,4a-tetrahydro-2′H,6H-spiro[1,4-oxazino[4,3-a][1,2]oxazolo[4,5-g]quinoline-5,5′-pyrimidine]-2′,4′,6′(1′H,3′H)-trione] reads 1700 nM; that for `CCCN(C)c1noc2c(F)c3c(cc12)CC1(C(=O)NC(=O)NC1=O)[C@H]1[C@H](C)O[C@H](C)CN31` (relative stereo) [Example 50, (2R,4S,4aS)-rel-11-fluoro-2,4-dimethyl-8-[methyl(propyl)amino]-1,2,4,4a-tetrahydro-2′H,6H-spiro[1,4-oxazino[4,3-a][1,2]oxazolo[4,5-g]quinoline-5,5′-pyrimidine]-2′,4′,6′(1′H,3′H)trione], 500 nM.
The result for `COc1noc2c(F)c3c(cc12)CC1(C(=O)NC(=O)NC1=O)[C@H]1[C@H](C)O[C@H](C)CN31` (relative stereo) [Example 51, (2R,4S,4aS)-rel-11-fluoro-8-methoxy-2,4-dimethyl-1,2,4,4a-tetrahydro-2′H,6H-spiro[1,4-oxazino[4,3-a][1,2]oxazolo[4,5-g]quinoline-5,5′-pyrimidine]-2′,4′,6′(1′H,3′H)-trione] reads 1000 nM; that for `C[C@@H]1CN2c3c(cc4c(OCc5ccccc5)noc4c3F)CC3(C(=O)NC(=O)NC3=O)[C@H]2[C@H](C)O1` (relative stereo) [Example 52, (2R,4S,4aS)-rel-8-(benzyloxy)-11-fluoro-2,4-dimethyl-1,2,4,4a-tetrahydro-2′H,6H-spiro[1,4-oxazino[4,3-a][1,2]oxazolo[4,5-g]quinoline-5,5′-pyrimidine]-2′,4′,6′(1′H,3′H)-trione], 2400 nM.
As to `Cc1ncn(-c2noc3c(F)c4c(cc23)CC2(C(=O)NC(=O)NC2=O)[C@H]2[C@H](C)O[C@H](C)CN42)n1` (relative stereo) [Example 54, (2R,4S,4aS)-rel-11-fluoro-2,4-dimethyl-8-(3-methyl-1H-1,2,4-triazol-1-yl)-1,2,4,4a-tetrahydro-2′H,6H-spiro[1,4-oxazino[4,3-a][1,2]oxazolo[4,5-g]quinoline-5,5′-pyrimidine]-2′,4′,6′(1′H,3′H)-trione], the IC50 was determined as 2000 nM.
Then `C[C@@H]1CN2c3c(cc4c(-n5cnc(C#N)n5)noc4c3F)CC3(C(=O)NC(=O)NC3=O)[C@H]2[C@H](C)O1` (relative stereo) [Example 55, 1-[(2R,4S,4aS)-rel-11-fluoro-2,4-dimethyl-2′,4′,6′-trioxo-1,1′,2,3′,4,4′,4a,6′-octahydro-2′H,6H-spiro[1,4-oxazino[4,3-a][1,2]oxazolo[4,5-g]quinoline-5,5′-pyrimidin]-8-yl]-1H-1,2,4-triazole-3-carbonitrile], with 2600 nM; and `C[C@@H]1CN2c3c(cc4c(-n5ccnn5)noc4c3F)CC3(C(=O)NC(=O)NC3=O)[C@H]2[C@H](C)O1` (relative stereo) [Example 57, (2R,4S,4aS)-rel-11-fluoro-2,4-dimethyl-8-(1H-1,2,3-triazol-1-yl)-1,2,4,4a-tetrahydro-2′H,6H-spiro[1,4-oxazino[4,3-a][1,2]oxazolo[4,5-g]quinoline-5,5′-pyrimidine]-2′,4′,6′(1′H,3′H)-trione], with 1500 nM; and `C[C@@H]1CN2c3c(cc4c(-n5ccnc5)noc4c3F)CC3(C(=O)NC(=O)NC3=O)[C@H]2[C@H](C)O1` (relative stereo) [Example 58, (2R,4S,4aS)-rel-11-fluoro-8-(1H-imidazol-1-yl)-2,4-dimethyl-1,2,4,4a-tetrahydro-2′H,6H-spiro[1,4-oxazino[4,3-a][1,2]oxazolo[4,5-g]quinoline-5,5′-pyrimidine]-2′,4′,6′(1′H,3′H)-trione], with 500 nM.
The result for `C[C@@H]1CN2c3c(cc4c(-n5cnc(C(F)(F)F)c5)noc4c3F)CC3(C(=O)NC(=O)NC3=O)[C@H]2[C@H](C)O1` (relative stereo) [Example 59, (2R,4S,4aS)-rel-11-fluoro-2,4-dimethyl-8-[4-(trifluoromethyl)-1H-imidazol-1-yl]-1,2,4,4a-tetrahydro-2′H,6H-spiro[1,4-oxazino[4,3-a][1,2]oxazolo[4,5-g]quinoline-5,5′-pyrimidine]-2′,4′,6′(1′H,3′H)-trione] reads 6600 nM; that for `Cc1cnn(-c2noc3c(F)c4c(cc23)CC2(C(=O)NC(=O)NC2=O)[C@H]2[C@H](C)O[C@H](C)CN42)c1` (relative stereo) [Example 60, (2R,4S,4aS)-rel-11-fluoro-2,4-dimethyl-8-(4-methyl-1H-pyrazol-1-yl)-1,2,4,4a-tetrahydro-2′H,6H-spiro[1,4-oxazino[4,3-a][1,2]oxazolo[4,5-g]quinoline-5,5′-pyrimidine]-2′,4′,6′(1′H,3′H)-trione], 1200 nM.
